Measured values from US8192962B2, “Processes for detecting toxic substances” (Daikin Industries, Ltd., priority 2001, dated 2012).

System: Energy system protein genes
Test: DNA chip mRNA expression in yeast, energy system protein genes (Table 4)
Assay type: cell-based, Saccharomyces cerevisiae S288C
How it was run: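 Measured as treated-to-untreated fluorescence ratio on a full-genome yeast DNA chip. Cells (S288C, YPD, 25° C.) were exposed in log phase for two hours to one chemical, dosed to curb growth without killing.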

Compound: CCCCCCCCCCCCc1ccc(S(=O)(=O)[O-])cc1.[Na+] [(17), sodium dodecylbenzosulfonate]
- The level of expressed mRNA in the presence of chemical substance/The level of expressed mRNA in the absence of chemical substance (yeast gene YJR048W): 1.2
- The level of expressed mRNA in the presence of chemical substance/The level of expressed mRNA in the absence of chemical substance (yeast gene YJR121W, cells incubated two hours with the chemical substance): 1.1
- The level of expressed mRNA in the presence of chemical substance/The level of expressed mRNA in the absence of chemical substance (yeast gene YJR155W): 1.3
- The level of expressed mRNA in the presence of chemical substance/The level of expressed mRNA in the absence of chemical substance (yeast gene YKL016C, cells incubated two hours with the chemical substance): 1.0
- The level of expressed mRNA in the presence of chemical substance/The level of expressed mRNA in the absence of chemical substance (yeast gene YKL060C, cells incubated two hours with the chemical substance): 1.2
- The level of expressed mRNA in the presence of chemical substance/The level of expressed mRNA in the absence of chemical substance (yeast gene YKL141W, cells incubated two hours with the chemical substance): 0.9
- The level of expressed mRNA in the presence of chemical substance/The level of expressed mRNA in the absence of chemical substance (yeast gene YKL148C, cells incubated two hours with the chemical substance): 0.8
- The level of expressed mRNA in the presence of chemical substance/The level of expressed mRNA in the absence of chemical substance (yeast gene YKR009C, cells incubated two hours with the chemical substance): 1.9
- The level of expressed mRNA in the presence of chemical substance/The level of expressed mRNA in the absence of chemical substance (yeast gene YKR058W, cells incubated two hours with the chemical substance, 25° C., YPD medium): 0.8
- The level of expressed mRNA in the presence of chemical substance/The level of expressed mRNA in the absence of chemical substance (yeast gene YKR097W): 1.1
- The level of expressed mRNA in the presence of chemical substance/The level of expressed mRNA in the absence of chemical substance (yeast gene YLL041C, cells incubated two hours with the chemical substance): 1.1
- The level of expressed mRNA in the presence of chemical substance/The level of expressed mRNA in the absence of chemical substance (yeast gene YLR038C, cells incubated two hours with the chemical substance): 1.2
- The level of expressed mRNA in the presence of chemical substance/The level of expressed mRNA in the absence of chemical substance (yeast gene YLR044C, cells incubated two hours with the chemical substance): 0.9
- The level of expressed mRNA in the presence of chemical substance/The level of expressed mRNA in the absence of chemical substance (yeast gene YLR134W, cells incubated two hours with the chemical substance): 0.6
- The level of expressed mRNA in the presence of chemical substance/The level of expressed mRNA in the absence of chemical substance (yeast gene YLR258W, cells incubated two hours with the chemical substance): 1.0
- The level of expressed mRNA in the presence of chemical substance/The level of expressed mRNA in the absence of chemical substance (yeast gene YLR284C, cells incubated two hours with the chemical substance): 2.9
- The level of expressed mRNA in the presence of chemical substance/The level of expressed mRNA in the absence of chemical substance (yeast gene YLR295C, cells incubated two hours with the chemical substance, 25° C., YPD medium): 0.9
- The level of expressed mRNA in the presence of chemical substance/The level of expressed mRNA in the absence of chemical substance (yeast gene YLR304C, cells incubated two hours with the chemical substance): 0.5
- The level of expressed mRNA in the presence of chemical substance/The level of expressed mRNA in the absence of chemical substance (yeast gene YLR345W): 1.2
- The level of expressed mRNA in the presence of chemical substance/The level of expressed mRNA in the absence of chemical substance (yeast gene YLR354C, cells incubated two hours with the chemical substance): 1.0
- The level of expressed mRNA in the presence of chemical substance/The level of expressed mRNA in the absence of chemical substance (yeast gene YLR377C, cells incubated two hours with the chemical substance): 0.9
- The level of expressed mRNA in the presence of chemical substance/The level of expressed mRNA in the absence of chemical substance (yeast gene YLR395C, cells incubated two hours with the chemical substance): 1.2
- The level of expressed mRNA in the presence of chemical substance/The level of expressed mRNA in the absence of chemical substance (yeast gene YML087C): 0.7
- The level of expressed mRNA in the presence of chemical substance/The level of expressed mRNA in the absence of chemical substance (yeast gene YML120C, cells incubated two hours with the chemical substance): 1.0
- The level of expressed mRNA in the presence of chemical substance/The level of expressed mRNA in the absence of chemical substance (yeast gene YML129C, cells incubated two hours with the chemical substance): 1.3
- The level of expressed mRNA in the presence of chemical substance/The level of expressed mRNA in the absence of chemical substance (yeast gene YMR073C, cells incubated two hours with the chemical substance): 0.8
- The level of expressed mRNA in the presence of chemical substance/The level of expressed mRNA in the absence of chemical substance (yeast gene YMR118C): 0.8
- The level of expressed mRNA in the presence of chemical substance/The level of expressed mRNA in the absence of chemical substance (yeast gene YMR205C, cells incubated two hours with the chemical substance): 0.6
- The level of expressed mRNA in the presence of chemical substance/The level of expressed mRNA in the absence of chemical substance (yeast gene YMR261C, cells incubated two hours with the chemical substance): 0.7
- The level of expressed mRNA in the presence of chemical substance/The level of expressed mRNA in the absence of chemical substance (yeast gene YMR267W, cells incubated two hours with the chemical substance, 25° C., YPD medium): 0.9
- The level of expressed mRNA in the presence of chemical substance/The level of expressed mRNA in the absence of chemical substance (yeast gene YMR323W, cells incubated two hours with the chemical substance): 1.1
- The level of expressed mRNA in the presence of chemical substance/The level of expressed mRNA in the absence of chemical substance (yeast gene YNL071W): 1.0
- The level of expressed mRNA in the presence of chemical substance/The level of expressed mRNA in the absence of chemical substance (yeast gene YNL202W, cells incubated two hours with the chemical substance): 2.4
- The level of expressed mRNA in the presence of chemical substance/The level of expressed mRNA in the absence of chemical substance (yeast gene YNL241C): 1.0
- The level of expressed mRNA in the presence of chemical substance/The level of expressed mRNA in the absence of chemical substance (yeast gene YNL331C): 1.7
- The level of expressed mRNA in the presence of chemical substance/The level of expressed mRNA in the absence of chemical substance (yeast gene YOL086C, cells incubated two hours with the chemical substance): 1.1
- The level of expressed mRNA in the presence of chemical substance/The level of expressed mRNA in the absence of chemical substance (yeast gene YOL165C): 1.6
- The level of expressed mRNA in the presence of chemical substance/The level of expressed mRNA in the absence of chemical substance (yeast gene YOR142W, cells incubated two hours with the chemical substance): 0.9
- The level of expressed mRNA in the presence of chemical substance/The level of expressed mRNA in the absence of chemical substance (yeast gene YOR178C, cells incubated two hours with the chemical substance): 1.0
- The level of expressed mRNA in the presence of chemical substance/The level of expressed mRNA in the absence of chemical substance (yeast gene YOR388C, cells incubated two hours with the chemical substance): 1.0
- The level of expressed mRNA in the presence of chemical substance/The level of expressed mRNA in the absence of chemical substance (yeast gene YPL031C, cells incubated two hours with the chemical substance): 1.4
- The level of expressed mRNA in the presence of chemical substance/The level of expressed mRNA in the absence of chemical substance (yeast gene YPL061W, cells incubated two hours with the chemical substance): 1.6
- The level of expressed mRNA in the presence of chemical substance/The level of expressed mRNA in the absence of chemical substance (yeast gene YPL088W): 9.1
- The level of expressed mRNA in the presence of chemical substance/The level of expressed mRNA in the absence of chemical substance (yeast gene YPL171C): 2.4
- The level of expressed mRNA in the presence of chemical substance/The level of expressed mRNA in the absence of chemical substance (yeast gene YPL240C): 0.8
- The level of expressed mRNA in the presence of chemical substance/The level of expressed mRNA in the absence of chemical substance (yeast gene YPL262W, cells incubated two hours with the chemical substance): 1.1
- The level of expressed mRNA in the presence of chemical substance/The level of expressed mRNA in the absence of chemical substance (yeast gene YPL275W, cells incubated two hours with the chemical substance): 1.0
- The level of expressed mRNA in the presence of chemical substance/The level of expressed mRNA in the absence of chemical substance (yeast gene YPL276W, cells incubated two hours with the chemical substance): 1.1
- The level of expressed mRNA in the presence of chemical substance/The level of expressed mRNA in the absence of chemical substance (yeast gene YPR048W, cells incubated two hours with the chemical substance): 0.7
- The level of expressed mRNA in the presence of chemical substance/The level of expressed mRNA in the absence of chemical substance (yeast gene YPR184W, cells incubated two hours with the chemical substance): 1.0
